# pIC50: −log10 of the molar value.
# Target: Human factor D (Homo sapiens (Human), UniProt P00746)
# Test: Human Factor D Assay
# Assay type: biochemical
# Details: Human factor D 80 nM, substrate Z-L-Lys-SBzl, assay of Example 12
# Description: Example 12. Human Factor D Assay
# Human factor D (purified from human serum, Complement Technology, Inc.) at 80 nM final concentration is incubated with test compound at various concentrations for 5 minutes at room temperature in 50 mM Tris, 1M NaCl, pH 7.5. A synthetic substrate Z-L-Lys-SBzl and DTNB (Ellman's reagent) are added to final concentrations of 100 μM each. The increase in color is recorded at OD405 nm in a microplate in kinetic mode over 30 minutes with 30 second time points in a spectrofluorimeter. IC50 values are calculated by non-linear regression from the percentage of inhibition of complement factor D activity as a function of test compound concentration.
# Human factor D, sequence (P00746 26-253): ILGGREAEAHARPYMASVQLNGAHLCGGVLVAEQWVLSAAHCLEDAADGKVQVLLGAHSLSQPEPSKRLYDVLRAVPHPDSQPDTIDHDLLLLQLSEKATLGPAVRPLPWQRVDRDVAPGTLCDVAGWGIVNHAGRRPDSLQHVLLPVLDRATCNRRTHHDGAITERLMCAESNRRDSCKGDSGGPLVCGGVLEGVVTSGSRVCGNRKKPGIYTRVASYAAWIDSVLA
row,Structure (SMILES),pIC50
1,"C#Cc1ccc2c(C(C)=O)cn(CC(=O)N3C[C@H](F)C[C@H]3C(=O)NCc3cccc(Cl)c3F)c2c1 [Compound 1, (2S,4R)-1-(2-(3-acetyl-6-ethynyl-1H-indol-1-yl)acetyl)-N-(3-chloro-2-fluorobenzyl)-4-fluoropyrrolidine-2-carboxamide]",> 6.00
2,"CC(=O)c1cn(CC(=O)N2C[C@H](F)C[C@H]2C(=O)NCc2cccc(Cl)c2F)c2cc(C#CC(=O)O)ccc12 [Compound 2, 3-(3-acetyl-1-(2-((2S,4R)-2-(3-chloro-2-fluorobenzylcarbamoyl)-4-fluoropyrrolidin-1-yl)-2-oxoethyl)-1H-indol-6-yl)propiolic acid]",> 6.00
3,"CC(=O)c1cn(CC(=O)N2C[C@H](F)C[C@H]2C(=O)NCc2cccc(Cl)c2F)c2cc(C#C[Si](C)(C)C)ccc12 [Compound 3, (2S,4R)-1-(2-(3-acetyl-6-((trimethylsilyl)ethynyl)-1H-indol-1-yl)acetyl)-N-(3-chloro-2-fluorobenzyl)-4-fluoropyrrolidine-2-carboxamide]",> 6.00
4,"COC(=O)C#Cc1ccc2c(C(C)=O)cn(CC(=O)N3C[C@H](F)C[C@H]3C(=O)NCc3cccc(Cl)c3F)c2c1 [Compound 4, methyl 3-(3-acetyl-1-(2-((2S,4R)-2-(3-chloro-2-fluorobenzylcarbamoyl)-4-fluoropyrrolidin-1-yl)-2-oxoethyl)-1H-indol-6-yl)propiolate]",> 6.00
5,"CC(=O)c1cn(CC(=O)N2C[C@H](F)C[C@H]2C(=O)NCc2cccc(Cl)c2F)c2cc(C#Cc3c[nH]c(=O)nc3N)ccc12 [Compound 5, (2S,4R)-1-(2-(3-acetyl-6-((4-amino-2-oxo-1,2-dihydropyrimidin-5-yl)ethynyl)-1H-indol-1-yl)acetyl)-N-(3-chloro-2-fluorobenzyl)-4-fluoropyrrolidine-2-carboxamide]",> 6.00
6,"CC(=O)c1cn(CC(=O)N2C[C@H](F)C[C@H]2C(=O)NCc2cccc(Cl)c2F)c2ccc(C#CC(=O)O)cc12 [Compound 6, 3-(3-acetyl-1-(2-((2S,4R)-2-(3-chloro-2-fluorobenzylcarbamoyl)-4-fluoropyrrolidin-1-yl)-2-oxoethyl)-1H-indol-5-yl)propiolic acid]",> 6.00
7,"CC(=O)c1cn(CC(=O)N2C[C@H](F)C[C@H]2C(=O)NCc2cccc(Cl)c2F)c2ccc(C#Cc3c[nH]c(=O)nc3N)cc12 [Compound 7, (2S,4R)-1-(2-(3-acetyl-5-((4-amino-2-oxo-1,2-dihydropyrimidin-5-yl)ethynyl)-1H-indol-1-yl)acetyl)-N-(3-chloro-2-fluorobenzyl)-4-fluoropyrrolidine-2-carboxamide]",> 6.00
8,"CCS(=O)(=O)NC(=O)C#Cc1ccc2c(c1)c(C(C)=O)cn2CC(=O)N1C[C@H](F)C[C@H]1C(=O)NCc1cccc(Cl)c1F [Compound 8, (2S,4R)-1-(2-(3-acetyl-5-(3-(ethylsulfonamido)-3-oxoprop-1-ynyl)-1H-indol-1-yl)acetyl)-N-(3-chloro-2-fluorobenzyl)-4-fluoropyrrolidine-2-carboxamide]",> 6.00
9,"CC(=O)c1cn(CC(=O)N2C[C@H](F)C[C@H]2C(=O)NCc2cccc(Cl)c2F)c2ccc(C#Cc3ncccn3)cc12 [Compound 9, (2S,4R)-1-(2-(3-acetyl-5-(pyrimidin-2-ylethynyl)-1H-indol-1-yl)acetyl)-N-(3-chloro-2-fluorobenzyl)-4-fluoropyrrolidine-2-carboxamide]",> 6.00
10,"CCS(=O)(=O)NC(=O)C#Cc1ccc2c(C(C)=O)cn(CC(=O)N3C[C@H](F)C[C@H]3C(=O)NCc3cccc(Cl)c3F)c2c1 [Compound 10, (2S,4R)-1-(2-(3-acetyl-6-(3-(ethylsulfonamido)-3-oxoprop-1-ynyl)-1H-indol-1-yl)acetyl)-N-(3-chloro-2-fluorobenzyl)-4-fluoropyrrolidine-2-carboxamide]",> 6.00
11,"O=C(O)C#Cc1ccc2c(C(=O)C(F)(F)F)cn(CC(=O)N3C[C@H](F)C[C@H]3C(=O)NCc3cccc(Cl)c3F)c2c1 [Compound 11, 3-(1-(2-((2S,4R)-2-(3-chloro-2-fluorobenzylcarbamoyl)-4-fluoropyrrolidin-1-yl)-2-oxoethyl)-3-(2,2,2-trifluoroacetyl)-1H-indol-6-yl)propiolic acid]",> 6.00
12,"CC(=O)c1cn(CC(=O)N2C[C@H](F)C[C@H]2C(=O)NCc2cccc(Cl)c2F)c2ccc(C#Cc3ncc(O)cn3)cc12 [Compound 13, (2S,4R)-1-(2-(3-acetyl-5-((5-hydroxypyrimidin-2-yl)ethynyl)-1H-indol-1-yl)acetyl)-N-(3-chloro-2-fluorobenzyl)-4-fluoropyrrolidine-2-carboxamide]",> 6.00
13,"CC(=O)c1cn(CC(=O)N2C[C@H](F)C[C@H]2C(=O)NCc2cccc(Cl)c2F)c2ccc(C#Cc3ccccc3)cc12 [Compound 14, (2S,4R)-1-(2-(3-acetyl-5-(phenylethynyl)-1H-indol-1-yl)acetyl)-N-(3-chloro-2-fluorobenzyl)-4-fluoropyrrolidine-2-carboxamide]",> 6.00
14,"C#Cc1cccc(NC(=O)[C@@H]2C[C@@H](F)CN2C(=O)Cn2nc(C(N)=O)c3ccncc32)c1F [Compound 15, 1-(2-((2S,4R)-2-(3-ethynyl-2-fluorophenylcarbamoyl)-4-fluoropyrrolidin-1-yl)-2-oxoethyl)-1H-pyrazolo[3,4-c]pyridine-3-carboxamide]",> 6.00
15,"CC(=O)c1cn(CC(=O)N2C[C@H](F)C[C@H]2C(=O)NCc2cccc(Cl)c2F)c2ccc(C#Cc3cncnc3)cc12 [Compound 16, (2S,4R)-1-(2-(3-acetyl-5-(pyrimidin-5-ylethynyl)-1H-indol-1-yl)acetyl)-N-(3-chloro-2-fluorobenzyl)-4-fluoropyrrolidine-2-carboxamide]",> 6.00
16,"CC(=O)c1cn(CC(=O)N2C[C@H](F)C[C@H]2C(=O)NCc2cccc(Cl)c2F)c2ccc(C#Cc3ccncc3)cc12 [Compound 17, (2S,4R)-1-(2-(3-acetyl-5-(pyridin-4-ylethynyl)-1H-indol-1-yl)acetyl)-N-(3-chloro-2-fluorobenzyl)-4-fluoropyrrolidine-2-carboxamide]",> 6.00
17,"CC(=O)c1cn(CC(=O)N2C[C@H](F)C[C@H]2C(=O)NCc2cccc(Cl)c2F)c2ccc(C#Cc3cnsc3)cc12 [Compound 18, (2S,4R)-1-(2-(3-acetyl-5-(isothiazol-4-ylethynyl)-1H-indol-1-yl)acetyl)-N-(3-chloro-2-fluorobenzyl)-4-fluoropyrrolidine-2-carboxamide]",> 6.00
18,"CC(=O)c1cn(CC(=O)N2C[C@H](F)C[C@H]2C(=O)NCc2cccc(Cl)c2F)c2ccc(C#Cc3ccccn3)cc12 [Compound 19, (2S,4R)-1-(2-(3-acetyl-5-(pyridin-2-ylethynyl)-1H-indol-1-yl)acetyl)-N-(3-chloro-2-fluorobenzyl)-4-fluoropyrrolidine-2-carboxamide]",> 6.00
19,"NC(=O)c1nn(CC(=O)N2C[C@H](F)C[C@H]2C(=O)NCc2cccc(Cl)c2F)c2ccc(C#Cc3ncccn3)cc12 [Compound 20, 1-(2-((2S,4R)-2-(3-chloro-2-fluorobenzylcarbamoyl)-4-fluoropyrrolidin-1-yl)-2-oxoethyl)-5-(pyrimidin-2-ylethynyl)-1H-indazole-3-carboxamide]",> 6.00
20,"CC(=O)c1cn(CC(=O)N2[C@@H]3C[C@@H]3C[C@H]2C(=O)Nc2cccc(Br)n2)c2ccc(C#Cc3ncccn3)cc12 [Compound 21, (1R,3S,5R)-2-(2-(3-acetyl-5-(pyrimidin-2-ylethynyl)-1H-indol-1-yl)acetyl)-N-(6-bromopyridin-2-yl)-2-azabicyclo[3.1.0]hexane-3-carboxamide]",> 6.00
21,"NC(=O)c1nn(CC(=O)N2C[C@H](F)C[C@H]2C(=O)Nc2cccc(-c3ccccc3Cl)c2F)c2ccc(C#Cc3ncccn3)cc12 [Compound 22, 1-(2-((2S,4R)-2-(2′-chloro-2-fluorobiphenyl-3-ylcarbamoyl)-4-fluoropyrrolidin-1-yl)-2-oxoethyl)-5-(pyrimidin-2-ylethynyl)-1H-indazole-3-carboxamide]",> 6.00
22,"NC(=O)c1nn(CC(=O)N2C[C@H](F)C[C@H]2C(=O)NCc2cccc(Cl)c2F)c2ccc(C#Cc3ccccn3)cc12 [Compound 23, 1-(2-((2S,4R)-2-(3-chloro-2-fluorobenzylcarbamoyl)-4-fluoropyrrolidin-1-yl)-2-oxoethyl)-5-(pyridin-2-ylethynyl)-1H-indazole-3-carboxamide]",> 6.00
23,"CC(=O)c1cn(CC(=O)N2C[C@H](F)C[C@H]2C(=O)NCc2cccc(Cl)c2F)c2ccc(C#Cc3c[nH]nc3C#N)cc12 [Compound 24, (2S,4R)-1-(2-(3-acetyl-5-((3-cyano-1H-pyrazol-4-yl)ethynyl)-1H-indol-1-yl)acetyl)-N-(3-chloro-2-fluorobenzyl)-4-fluoropyrrolidine-2-carboxamide]",> 6.00
24,"NC(=O)c1nn(CC(=O)N2C[C@H](F)C[C@H]2C(=O)Nc2cccc(Cl)c2F)c2ccc(C#Cc3ncccn3)cc12 [Compound 25, 1-(2-((2S,4R)-2-(3-chloro-2-fluorophenylcarbamoyl)-4-fluoropyrrolidin-1-yl)-2-oxoethyl)-5-(pyrimidin-2-ylethynyl)-1H-indazole-3-carboxamide]",> 6.00
25,"CC(=O)c1cn(CC(=O)N2C[C@H](F)C[C@H]2C(=O)NCc2cccc(Cl)c2F)c2ccc(C#Cc3cnccn3)cc12 [Compound 26, (2S,4R)-1-(2-(3-acetyl-5-(pyrazin-2-ylethynyl)-1H-indol-1-yl)acetyl)-N-(3-chloro-2-fluorobenzyl)-4-fluoropyrrolidine-2-carboxamide]",> 6.00
26,"NC(=O)c1nn(CC(=O)N2[C@@H]3C[C@@H]3C[C@H]2C(=O)Nc2cccc(-c3ccccc3Cl)c2F)c2ccc(C#Cc3ncccn3)cc12 [Compound 27, 1-(2-((1R,3S,5R)-3-(2′ chloro-2-fluorobiphenyl-3-ylcarbamoyl)-2-azabicyclo[3.1.0]hexan-2-yl)-2-oxoethyl)-5-(pyrimidin-2-ylethynyl)-1H-indazole-3-carboxamide]",> 6.00
